In patent US4540692A, “Anti-inflammatory N-(1-oxo-2,4,6-cycloheptatrienyl)2H-1,2-benzothiazine-3-carboxamide 1,1-dioxide derivatives, compositions, and method of use” (Fujisawa Pharmaceutical Co., Ltd., priority 1983, dated 1985):

Test system: carrageenin edema
Assay: Carrageenin edema test
Format: in vivo, Sprague-Dawley rats
Conditions: rat hind paw, 10 mg/kg oral, 60 minutes prior to carrageenin (0.1 ml, 1%); edema weight 3 hours after injection
Protocol: Five Sprague-Dawley rats were fasted for 24 hours and submitted to the study. First, 0.1 ml of carrageenin (1%) was subcutaneously injected into the paw of the right hind limb and after 3 hours the rat was sacrificed. The untreated limb and the edematous limb were respectively incised off at the junction of the tibia and weighed. The difference in weight between the edematous limb and the untreated limb was taken as the weight of the edema.
The test compound was orally administered 60 minutes prior to the administration of carrageenin and the swelling in the treated limb was compared with that in the control limb. The test compound was administered in a dose of 10 mg/kg.

CN1C(C(=O)Nc2cccccc2=O)=C(O)c2ccccc2S1(=O)=O [Example 1, 4-hydroxy-2-methyl-N-(1-oxo-2,4,6-cycloheptatrien-2-yl)-2H-1,2-benzothiazine-3-carboxamide 1,1-dioxide]
% Inhibition of carrageenin edema: 51.4%
